Reference: patent publication US20030190396A1, “Methods and compositions for altering the sweetness delivery profile of sucralose” (priority 2002, published 2003)
Where a SMILES comes first, the peptide text is derived from it.

Assays:
rats = settings: cited from earlier work
[1] = Subcutaneous water retention in bodybuilders on a pre-competition diet (caliper test and visual inspection, Example 6); format: in vivo, human; settings: ten bodybuilders; 12-week pre-competition diet with this sweetener only; caliper test and muscle definition score twice weekly
Protocol: This study was defined to determine whether the ingestion of sucralose results in reduced subcutaneous water retention compared to the water retention resulting from the ingestion of aspartame. Ten bodybuilders on a pre-competition diet were closely monitored. Prior to the pre-competition diet, the body fat and the weight of the ten bodybuilders were measured. Prior to this study, the participants in their normal diet refrained for one week from any products containing either sucralose or aspartame.
In the first phase of the study, during the 12-week pre-competition diet, the body builders consumed goods and liquids that were sweetened with aspartame only. Two methods for assessing subcutaneous water retention were used. […] As a second test, the subjective visual inspection was used, where the abdomen and overall body definition were visually inspected and photographed. As with the objective test, the subjects' muscle definition-value was determined twice weekly. A scale of 1 to 10 for muscle definition was used as an indicator for subcutaneous water retention, with a score of 10 indicating excellent muscle definition and 1 indicating poor definition. […]

[2] = Roberts, J. Appl. Nutr. 1988; cited from earlier work
[3] = in vivo; cited from earlier work

subcutaneous water retention [1] | Compound | risk of causing cancer (rats) | water retention within the body [2] | sweetness intensity relative to sucrose [3]
 | O=C1NS(=O)(=O)c2ccccc21 [Saccharin] | reported to be a risk in causing cancer in rats |  | 
makes the body retain water | COC(=O)[C@H](Cc1ccccc1)NC(=O)[C@@H](N)CC(=O)O [aspartame, N-L-α-aspartyl-L-phenylalanine methyl ester] (H-Asp-Phe-OMe) |  | linked with excessive water retention within the body | 
This effect is reduced | OC[C@H]1O[C@H](O[C@]2(CCl)O[C@H](CCl)[C@@H](O)[C@@H]2O)[C@H](O)[C@@H](O)[C@H]1Cl [sucralose, 4,1′,6′-trichloro-4,1′,6′-trideoxygalactosucrose] |  |  | several hundred times that of sucrose
